Experiments:
[1] = Alkaline pH stability of dyed fabrics (colour fastness, ΔE); assay type: physicochemical; details: pH 8 with NaOH
Procedure: (§1) In order to assess the stability and colour fastness of violacein and violacein derivatives dyed onto fabrics, dyed fabrics were subjected to a number of conditions. Fabrics were dyed according to Example 18 and colour coordinates and colour change before and after exposure to a given condition were determined as described in Example 18. To measure temperature stability, fabrics were incubated in an oven set to 80° c. for 4 h. To measure stability under acid and alkaline conditions, fabrics were fully submerged in water solutions set to pH 8 with NaOH and pH 5 with HCl and incubated at room temperature for 30 minutes. Fabrics were then incubated at 37° c. for 4 h. To measure stability during laundering, fabrics were washed at 30° c. under the “mix” setting of a Siemens IQ300 washing machine, then dried in a Siemens IQ300 dryer until dry. To measure artificial light stability, fabrics were placed under an LED lamp at room temperature for 16 h. To measure UV light stability, fabrics were placed under a UV lamp at room temperature for 1 h.

[2] = Free radical scavenging ability of dyed Nylon 6,6 fabric (DPPH); assay type: biochemical; details: dyed Nylon 6,6 fabric strip
Procedure: Violacein is reported as being a potent antioxidant able to effectively scavenge free radicals. […] To test this, 1.5×1.5 cm dyed Nylon 6,6 fabric strips were incubated in the dark at room temperature for 1 h in 5 mL of a 5×10^−5 M DPPH free radical solution in 100% ethanol. Undyed Nylon 6,6 fabric strips were included as a negative control. After 1 h absorbance was measured at 517 nm and % scavenging ability calculated as above.

[3] = UV stability of dyed fabrics (colour fastness, ΔE); assay type: physicochemical; details: for ΔE: before vs after UV lamp, room temperature, 1 h
Procedure: as §1

[4] = Stability during laundering of dyed fabrics (colour fastness, ΔE); assay type: physicochemical; details: washed at 30° c.
Procedure: as §1

[5] = Acrylic, before and after the stability test
[6] = Bleached cotton, before and after the stability test
[7] = Diacetate, before and after the stability test
[8] = Nylon 6,6, before and after the stability test
[9] = Polyester, before and after the stability test
[10] = Wool, before and after the stability test
[11] = Acrylic, after test (UV lamp, room temperature, 1 h)
[12] = Bleached cotton, after test (UV lamp, room temperature, 1 h)
[13] = Diacetate, after test (UV lamp, room temperature, 1 h)
[14] = Nylon 6,6, after test (UV lamp, room temperature, 1 h)
[15] = Polyester, after test (UV lamp, room temperature, 1 h)
[16] = Wool, after test (UV lamp, room temperature, 1 h)

Compound O=C1N=C(c2c[nH]c3ccc(O)cc23)C=C1c1c[nH]c2ccccc12 [proviolacein] has an L ([1]; Acrylic, After test) of 58.76, an a ([1]; Acrylic, After test) of −2.16 and a b ([1]; Acrylic, After test) of 3.85. It also gave an L ([1]; Acrylic, Before test) of 57.87, an a ([1]; Acrylic, Before test) of −0.46 and a b ([1]; Acrylic, Before test) of 1.91. The ΔE [1, 5] was 2.73, the L ([1]; Bleached cotton, After test) was 64.37 and the a ([1]; Bleached cotton, After test) was 2.22. For the same compound, the b ([1]; Bleached cotton, After test) was 2.08, the L ([1]; Bleached cotton, Before test) was 63.78 and the a ([1]; Bleached cotton, Before test) was 2.31. The b ([1]; Bleached cotton, Before test) was 1.4, the ΔE [1, 6] was 0.90 and the L ([1]; Diacetate, After test) was 61.54. The a ([1]; Diacetate, After test) was 3.25, the b ([1]; Diacetate, After test) was 6.78 and the L ([1]; Diacetate, Before test) was 60.55. The a ([1]; Diacetate, Before test) was 3.12, the b ([1]; Diacetate, Before test) was 6.29 and the ΔE [1, 7] was 1.11. For the same compound, the L ([1]; Nylon 6,6, After test) was 50.89, the a ([1]; Nylon 6,6, After test) was −1.8 and the b ([1]; Nylon 6,6, After test) was −3.04. For the same compound, the L ([1]; Nylon 6,6, Before test) was 52.98, the a ([1]; Nylon 6,6, Before test) was −2.5 and the b ([1]; Nylon 6,6, Before test) was −3.65. The ΔE [1, 8] was 2.29, the L ([1]; Polyester, After test) was 64.69 and the a ([1]; Polyester, After test) was −1.03. The b ([1]; Polyester, After test) was −0.34, the L ([1]; Polyester, Before test) was 64.55 and the a ([1]; Polyester, Before test) was −2.15. For the same compound, the b ([1]; Polyester, Before test) was 1.47, the ΔE [1, 9] was 2.13 and the L ([1]; Wool, After test) was 65.28. For the same compound, the a ([1]; Wool, After test) was −1.97, the b ([1]; Wool, After test) was 5.42 and the L ([1]; Wool, Before test) was 65.56. It also gave an a ([1]; Wool, Before test) of −2.33, a b ([1]; Wool, Before test) of 7.35 and a ΔE [1, 10] of 1.98. It also gave an OD517 ([2]; 1 h in the dark in 5×10^−5 M DPPH in 100% ethanol) of 1.88, a Scavenging ability % ([2]; 1 h in the dark in 5×10^−5 M DPPH, vs undyed control) of 17.27% and an L [3, 11] of 57.07. It also gave an a [3, 11] of 0.02, a b [3, 11] of 1.94 and an L ([3]; Acrylic, before test) of 57.31. It also gave an a ([3]; Acrylic, before test) of −0.99, a b ([3]; Acrylic, before test) of 2.73 and a ΔE ([3]; Acrylic) of 1.30. It also gave an L [3, 12] of 64.92, an a [3, 12] of 1.27 and a b [3, 12] of 3.29. For the same compound, the L ([3]; Bleached cotton, before test) was 64.65, the a ([3]; Bleached cotton, before test) was 0.4 and the b ([3]; Bleached cotton, before test) was 2.43. For the same compound, the ΔE ([3]; Bleached cotton) was 1.25, the L [3, 13] was 61.92 and the a [3, 13] was 3.89. The b [3, 13] was 6.22, the L ([3]; Diacetate, before test) was 61.25 and the a ([3]; Diacetate, before test) was 3.87. It also gave a b ([3]; Diacetate, before test) of 4.46, a ΔE ([3]; Diacetate) of 1.88 and an L [3, 14] of 57.07. The a [3, 14] was 0.02, the b [3, 14] was 1.94 and the L ([3]; Nylon 6,6, before test) was 57.31. It also gave an a ([3]; Nylon 6,6, before test) of −0.99, a b ([3]; Nylon 6,6, before test) of 2.73 and a ΔE ([3]; Nylon 6,6) of 1.30. It also gave an L [3, 15] of 65.53, an a [3, 15] of −1.02 and a b [3, 15] of 0.99. For the same compound, the L ([3]; Polyester, before test) was 64.26, the a ([3]; Polyester, before test) was −2.11 and the b ([3]; Polyester, before test) was 1.21. The ΔE ([3]; Polyester) was 1.69, the L [3, 16] was 62.87 and the a [3, 16] was −0.07. For the same compound, the b [3, 16] was 5.48, the L ([3]; Wool, before test) was 62.43 and the a ([3]; Wool, before test) was −0.15. For the same compound, the b ([3]; Wool, before test) was 5.23, the ΔE ([3]; Wool) was 0.51 and the L ([4]; Acrylic, After test) was 67.87. For the same compound, the a ([4]; Acrylic, After test) was −1.12, the b ([4]; Acrylic, After test) was 2.23 and the L ([4]; Acrylic, Before test) was 58.81. The a ([4]; Acrylic, Before test) was 0.01, the b ([4]; Acrylic, Before test) was 1.72 and the ΔE [4, 5] was 9.14. It also gave an L ([4]; Bleached cotton, After test) of 73, an a ([4]; Bleached cotton, After test) of 0.55 and a b ([4]; Bleached cotton, After test) of 1.68. It also gave an L ([4]; Bleached cotton, Before test) of 65.1, an a ([4]; Bleached cotton, Before test) of 1.34 and a b ([4]; Bleached cotton, Before test) of 3.23. The ΔE [4, 6] was 8.09, the L ([4]; Diacetate, After test) was 68.23 and the a ([4]; Diacetate, After test) was 3.76. It also gave a b ([4]; Diacetate, After test) of 5.07, an L ([4]; Diacetate, Before test) of 62.86 and an a ([4]; Diacetate, Before test) of 4.96. The b ([4]; Diacetate, Before test) was 5.09, the ΔE [4, 7] was 5.50 and the L ([4]; Nylon 6,6, After test) was 56.92. For the same compound, the a ([4]; Nylon 6,6, After test) was −1.51, the b ([4]; Nylon 6,6, After test) was −3.83 and the L ([4]; Nylon 6,6, Before test) was 50.65. It also gave an a ([4]; Nylon 6,6, Before test) of −1.57, a b ([4]; Nylon 6,6, Before test) of −2.84 and a ΔE [4, 8] of 6.35. For the same compound, the L ([4]; Polyester, After test) was 72.82, the a ([4]; Polyester, After test) was −0.46 and the b ([4]; Polyester, After test) was 0.54. The L ([4]; Polyester, Before test) was 65.21, the a ([4]; Polyester, Before test) was −1.18 and the b ([4]; Polyester, Before test) was 1.47. The ΔE [4, 9] was 7.70, the L ([4]; Wool, After test) was 72.54 and the a ([4]; Wool, After test) was −1.14. The b ([4]; Wool, After test) was 5.37, the L ([4]; Wool, Before test) was 64.87 and the a ([4]; Wool, Before test) was 0.09. The b ([4]; Wool, Before test) was 5 and the ΔE [4, 10] was 7.78.
